Measurements published in patent publication US20200255438A1, “NOVEL SALTS” (priority 2017, published 2020).

What was measured:
[1] = Solid form stability under extremes of humidity (XRPD post DVS/GVS); assay type: physicochemical; conditions: 0% RH and 90% RH, XRPD vs input
Excerpt: FIG. 1: XRPD patterns of citrate salt (Example 1), Ex-DVS examination at 0% RH, (top panel), 90% RH, (middle panel) and input (bottom panel).
FIG. 3: XRPD data for mesylate salt (Example 2) exposed to extremes of humidity post GVS cycle: input (bottom panel) output 0% (top panel) output 90% (middle panel).
X-Ray Powder Diffraction (XRPD)
X-Ray Powder Diffraction patterns were collected on a PANalytical diffractometer using Cu Kα radiation (45 kV, 40 mA), θ−θ goniometer, focusing mirror, divergence slit (½″), soller slits at both incident and divergent beam (4 mm) and a PIXcel detector. The software used for data collection was X'Pert Data Collector, version 2.2f and the data was presented using X'Pert Data Viewer, version 1.2d.
XRPD patterns were acquired under ambient conditions via a transmission foil sample stage (polyimide—Kapton, 12.7 μm thickness film) under ambient conditions using a PANalytical X'Pert PRO. The data collection range was 2.994-35°2θ with a continuous scan speed of 0.202004°s^−1.

[2] = Aqueous solubility (equilibration in de-ionised water, HPLC); assay type: physicochemical; conditions: for Form retention of solids after solubility equilibration (XRPD): 24 hours in de-ionised water, solids dried at 50° C., re-analysed by XRPD; for solubility at 24 h: de-ionised water, water, thermodynamic from solid, 25° C.
Procedure: […] Solids were isolated by filtration to deliver clear liquors that were analyzed for API content by HPLC vs a known standard of free base (typical dilution of 50× using deionized water for salt candidates to deliver a working concentration in line with the standard at 0.5 mg/ml). The solids were dried at 50° C. and re-analysed by XRPD to confirm form retention—both mesylate and citrate retain form.

SMILES | Crystalline form stability / hydrate formation under different extremes of humidity (XRPD) [1] | Form retention of solids after solubility equilibration (XRPD) [2] | solubility at 24 h [2] [mg/mL]
Cc1cc(-c2ccc(C(F)(F)F)cc2)nc([C@H]2CC[C@@]3(CCN(C)C3=O)N2)n1.O=C(O)CC(O)(CC(=O)O)C(=O)O [Example 1, (2R,5S)-7-Methyl-2-[4-methyl-6-[4-(trifluoromethyl)-phenyl]pyrimidin-2-yl]-1,7-diazaspiro[4.4]nonan-6-one citric acid (citrate) salt] | no tendency to form hydrates | retain form | 22
CS(=O)(=O)O.Cc1cc(-c2ccc(C(F)(F)F)cc2)nc([C@H]2CC[C@@]3(CCN(C)C3=O)N2)n1 [Example 2, (2R,5S)-7-Methyl-2-[4-methyl-6-[4-(trifluoromethyl)-phenyl]pyrimidin-2-yl]-1,7-diazaspiro[4.4]nonan-6-one methanesulfonic acid (mesylate) salt] | no tendency to form hydrates | retain form | 65
